The term IC50 denotes the concentration that inhibits the measured activity by half.

In patent US20220340875A1, “METHODS OF CULTURING AND/OR EXPANDING STEM CELLS AND/OR LINEAGE COMMITTED PROGENITOR CELLS USING AMIDO COMPOUNDS” (IDEAYA BIOSCIENCES, INC., priority 2018, published 2022) one finds IC50 data, which are given here for 13 compounds.

Where only a bound is given, the exact number is not on record here.

This experiment has as its target T1, hAhR (Homo sapiens, UniProt P35869).
T1 construct: Stably integrated DRE-luciferase cell lines were generated by transducing the both cell lines with Cignal XRE luciferase reporter (Qiagen) lentiviral particles; endogenous in cells
T1 sequence (P35869 11-848): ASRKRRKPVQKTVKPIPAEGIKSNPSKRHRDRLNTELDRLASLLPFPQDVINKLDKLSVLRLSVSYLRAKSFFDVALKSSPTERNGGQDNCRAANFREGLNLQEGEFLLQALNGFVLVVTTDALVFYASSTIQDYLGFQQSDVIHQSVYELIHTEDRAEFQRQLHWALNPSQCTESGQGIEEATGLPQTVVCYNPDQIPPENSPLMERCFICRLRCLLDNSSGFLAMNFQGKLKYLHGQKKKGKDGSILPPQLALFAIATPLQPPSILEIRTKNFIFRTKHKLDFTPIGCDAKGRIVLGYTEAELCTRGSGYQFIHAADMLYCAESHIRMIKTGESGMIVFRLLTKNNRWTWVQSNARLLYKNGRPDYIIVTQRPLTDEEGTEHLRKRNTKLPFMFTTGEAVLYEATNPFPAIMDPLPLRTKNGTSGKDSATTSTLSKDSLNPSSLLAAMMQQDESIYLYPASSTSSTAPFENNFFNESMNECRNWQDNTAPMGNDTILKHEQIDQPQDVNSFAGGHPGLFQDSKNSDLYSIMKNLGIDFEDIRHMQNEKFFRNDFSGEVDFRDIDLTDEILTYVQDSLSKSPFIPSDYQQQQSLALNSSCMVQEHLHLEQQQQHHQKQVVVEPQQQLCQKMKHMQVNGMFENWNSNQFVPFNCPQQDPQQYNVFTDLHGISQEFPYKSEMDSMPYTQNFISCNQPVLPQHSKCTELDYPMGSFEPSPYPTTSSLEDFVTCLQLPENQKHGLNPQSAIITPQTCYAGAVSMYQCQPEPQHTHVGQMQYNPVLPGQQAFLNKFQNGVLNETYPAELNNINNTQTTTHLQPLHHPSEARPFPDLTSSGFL
The experiment is described as follows: AhR DRE-luciferase reporter transcriptional assay, antagonist mode (TCDD-induced). As to conditions: HEPG2 DRE-Luc cells, 3 nM TCDD, 24 hour incubation, relative IC50. In kind it is cell-based. The procedure, abridged: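 HepG2 cells carrying a stably integrated DRE-luciferase reporter, in OptiMEM with 0.5% FBS; semi-log compound doses added with 3 nM TCDD, 24 h incubation, firefly luciferase read-out. Percent maximal activity normalised between vehicle ± TCDD; relative IC50 taken as half-reduction between curve plateaus.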
(In a reporter assay the amount or activity of a reporter protein is the signal.)
For `Cc1cc(-c2ccc3cc(N4CCOCC4)ccc3n2)ccc1NC(=O)c1ccnn1C` [Example 071, 1-methyl-N-(2-methyl-4-(6-morpholinoquinolin-2-yl)phenyl)-1H-pyrazole-5-carboxamide], the IC50 was 200 to 500 nM.
As for `Cc1c(-c2ccc3cc(C(F)(F)F)ccc3n2)ccc(N(C)C(=O)c2ccnn2C)c1F` [Example 006, N-(2-fluoro-3-methyl-4-(6-(trifluoromethyl)quinolin-2-yl)phenyl)-N,1-dimethyl-1H-pyrazole-5-carboxamide], the figure is 1000 to 10000 nM.
`Cc1cc(-c2ccc3cc(C(F)(F)F)ccc3n2)cc(F)c1NC(=O)c1ccnn1C` [Example 008, N-(2-fluoro-6-methyl-4-(6-(trifluoromethyl)quinolin-2-yl)phenyl)-1-methyl-1H-pyrazole-5-carboxamide] displayed an IC50 of under 200 nM.
Take `Cc1cc(-c2ncc3nc(C(F)(F)F)cc(C)c3n2)ccc1N(C)C(=O)c1ccnn1CC(C)O` (stereo not shown) [Example 192, 1-(2-hydroxypropyl)-N-methyl-N-(2-methyl-4-(8-methyl-6-(trifluoromethyl)pyrido[3,2-d]pyrimidin-2-yl)phenyl)-1H-pyrazole-5-carboxamide]: the IC50 was under 200 nM.
As for `Cc1cc(-c2ncc3cc(C(F)(F)F)ccc3n2)ccc1NC(=O)c1ncncc1C` [Example 123, 5-methyl-N-(2-methyl-4-(6-(trifluoromethyl)quinazolin-2-yl)phenyl)pyrimidine-4-carboxamide], the figure is 500 to 1000 nM.
The compound `Cc1cc(C(F)(F)F)nc2cnc(-c3ccc(NC(=O)c4ccnn4C)c(F)c3)nc12` [Example 163, N-[2-fluoro-4-[8-methyl-6-(trifluoromethyl)pyrido[3,2-d]pyrimidin-2-yl]phenyl]-1-methyl-1H-pyrazole-5-carboxamide] came in with an IC50 of under 200 nM.
As for `Cc1cc(-c2ncc3nc(C(F)(F)F)cc(C)c3n2)ccc1N(C)C(=O)c1cc(C(N)=O)nn1CCO` [Example 200, 1-(2-hydroxyethyl)-N5-methyl-N5-(2-methyl-4-(8-methyl-6-(trifluoromethyl)pyrido[3,2-d]pyrimidin-2-yl)phenyl)-1H-pyrazole-3,5-dicarboxamide], the figure is under 200 nM; as for `Cc1cc(C(=O)N(C)c2ccc(-c3ncc4cc(C(F)(F)F)ccc4n3)cc2C)c(C)cn1` [Example 126, N,2,5-trimethyl-N-(2-methyl-4-(6-(trifluoromethyl)quinazolin-2-yl)phenyl)isonicotinamide], under 200 nM; as for `Cc1cc(C(=O)Nc2ccc(-c3ncc4nc(OC(F)(F)F)cc(C)c4n3)cc2C)ccn1` [Example 160, 2-methyl-N-(2-methyl-4-(8-methyl-6-(trifluoromethoxy)pyrido[3,2-d]-pyrimidin-2-yl)phenyl)isonicotinamide], under 200 nM.
As for `Cc1cc(-c2ncc3cc(C(F)(F)F)ccc3n2)ccc1N(C)C(=O)OC(C)(C)C` [Example 009, tert-butyl methyl(2-methyl-4-(6-(trifluoromethyl)quinazolin-2-yl)phenyl)carbamate], the figure is 500 to 1000 nM.
The compound `Cc1cc(-c2ncc3nc(C(F)(F)F)cc(C)c3n2)ccc1N(C)C(=O)c1cc(C(=O)O)nn1CC(N)=O` [Example 195, 1-(2-amino-2-oxoethyl)-5-(methyl(2-methyl-4-(8-methyl-6-(trifluoro-methyl)pyrido[3,2-d]pyrimidin-2-yl)phenyl)carbamoyl)-1H-pyrazole-3-carboxylic acid] returned an IC50 of 1000 to 10000 nM.
As for `Cc1c(-c2ncc3cc(C(F)(F)F)ccc3n2)ccc(N(C)C(=O)c2ccnn2C)c1F` [Example 114, N-(2-fluoro-3-methyl-4-(6-(trifluoromethyl)quinazolin-2-yl)phenyl)-N,1-dimethyl-1H-pyrazole-5-carboxamide], the figure is under 200 nM; as for `Cc1cc(-c2ccc3ccc(F)cc3n2)ccc1NC(=O)c1ccnn1C` [Example 019, N-(4-(7-fluoroquinolin-2-yl)-2-methylphenyl)-1-methyl-1H-pyrazole-5-carboxamide], 200 to 500 nM.
